For 17 compounds, logD results are on record in the SangsterLogP compilation.

Broadly, the logD is lipophilicity at a set pH, counting ionised and neutral species. Read a low logD as lower lipophilicity.

Structures are written as SMILES.

The nature of the series: method code SF-AS, from Smul'skii, S.; Bogatskii, A.; Andronati, S.; Vikhlyaev, Yu.; Zhilina, Z. (1977). Lipophilic nature of quinazolin-2-ones and 1,2-dihydro-3H-1,4-benzodiazepin-2-ones. Otdel. Khim. Nauk., 235(2)369-371. Particulars: pH 7.4.
Turning to `O=c1nc(-c2ccccc2)c2ccccc2[nH]1`, the logD is 1.91. `O=C1CN=C(c2ccccc2)c2cc(Br)ccc2N1` returned a logD of 3.11.

In turn, `CCCC1N=C(c2ccccc2)c2cc(Cl)ccc2NC1=O` (configuration not stated) registered a logD of 4.14. Consider `CCC1N=C(c2ccccc2)c2cc(Br)ccc2NC1=O` (configuration not stated), for which the logD was found to be 3.79.

`CC(C)C1N=C(c2ccccc2)c2cc(Cl)ccc2NC1=O` (configuration not stated) had a logD of 4. Consider `CC(=O)OC1N=C(c2ccccc2)c2cc(Cl)ccc2NC1=O` (configuration not stated), for which the logD was found to be 2.6. For the compound `O=C1CN=C(c2ccccc2Cl)c2cc(Br)ccc2N1`, the logD came to 3.3. For the compound `O=c1nc(-c2ccccc2)c2cc(Br)ccc2[nH]1`, the logD stood at 2.71. The compound `O=C1Nc2ccc(Br)cc2C(c2ccccc2Cl)=NC1O` (configuration not stated) showed a logD of 2.54. The result for `O=C1CN(O)C(c2ccccc2)=c2cc(Br)ccc2=N1` reads 1.53. The result for `O=c1nc(-c2ccccc2)c2cc(Cl)ccc2[nH]1` reads 2.53; that for `Cc1ccc2c(c1)=C(c1ccccc1)N(O)CC(=O)N=2`, 1.13. The result for `CC1N=C(c2ccccc2)c2cc(Cl)ccc2N(C)C1=O` (configuration not stated) reads 3.68. Take `CC1N=C(c2ccccc2)c2cc(Cl)ccc2NC1=O` (configuration not stated): the logD was 3.25.

Consider `CC(C)C1N=C(c2ccccc2)c2cc(Br)ccc2NC1=O` (configuration not stated), for which the logD was determined as 4.18. As for `CC(=O)OC1N=C(c2ccccc2)c2cc(Br)ccc2NC1=O` (configuration not stated), the pH-dependent lipophilicity (logD) stood at 2.76. `Cc1ccc2[nH]c(=O)nc(-c3ccccc3)c2c1`: the logD was found to be 2.32.
